{"source": "patent US10800792B2", "about": "“Inhibitors of Bruton's tyrosine kinase and method of their use” (JANSSEN PHARMACEUTICA NV, priority 2015, dated 2020)", "molecular_target": "unphosphorylated-BTK kinase domain (UP-BTK), GST-tagged human BTK (389-659aa) (Homo sapiens (Human), UniProt Q06187)", "sequence (Q06187 389-659)": "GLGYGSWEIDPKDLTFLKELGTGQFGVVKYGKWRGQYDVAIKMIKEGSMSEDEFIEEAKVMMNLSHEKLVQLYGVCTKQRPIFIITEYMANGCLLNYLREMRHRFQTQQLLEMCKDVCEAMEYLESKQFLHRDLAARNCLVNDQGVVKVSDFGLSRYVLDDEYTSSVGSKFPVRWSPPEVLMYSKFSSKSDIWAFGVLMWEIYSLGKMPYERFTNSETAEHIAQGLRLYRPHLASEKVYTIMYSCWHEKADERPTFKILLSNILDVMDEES", "assay": "BTK kinase Lanthascreen binding assay", "conditions": "pIC50 = negative log of the IC50 in molar", "summary_of_the_method": "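Values are pIC50, i.e. negative log of IC50 in molar, derived from concentration–response fitting. Each compound competes with a fluorescently labelled tracer for the unphosphorylated kinase domain.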", "key": {"[1]": {"conditions": "unphosphorylated-BTK kinase domain, 50 nM Tracer 236, 60 minutes"}, "[2]": {"conditions": "Lanthascreen tracer competition, 60 minutes incubation"}, "[3]": {"conditions": "60 minutes incubation, 50 nM Tracer 236"}}, "data": [{"molecule": "O=C(NCCN1CCNCC1)c1sc2nccc3c2c1NC(=O)N3c1ccc(Oc2ccccc2)cc1", "note": "[Example 928, 4-Oxo-5-(4-phenoxyphenyl)-N-(2-(piperazin-1-yl)ethyl)-4,5-dihydro-3H-1-thia-3,5,8-triazaacenaphthylene-2-carboxamide]", "values": [{"measurement": "BTK_I_binding pIC50", "setting": "unphosphorylated-BTK kinase domain, 60 minutes incubation, 50 nM Tracer 236", "value": 6.2}]}, {"molecule": "COC(C)(C)/C=C(\\C#N)C(=O)N1CCC[C@@H](NC(=O)c2sc3nccc4c3c2NC(=O)N4c2ccc(Oc3ccccc3)cc2C)C1", "note": "(single isomer, unassigned) [Example 450, (R,*E)-N-(1-(2-Cyano-4-methoxy-4-methylpent-2-enoyl)piperidin-3-yl)-5-(*S)-(2-methyl-4-phenoxyphenyl)-4-oxo-4,5-dihydro-3H-1-thia-3,5,8-triazaacenaphthylene-2-carboxamide]", "values": [{"measurement": "BTK_I_binding pIC50", "setting": "[1]", "value": 7.6}]}, {"molecule": "CO[C@@H]1CNC[C@H](NC(=O)c2sc3nccc4c3c2NC(=O)N4c2ccc(Oc3ccccc3)cc2C)C1", "note": "(relative stereo) [Example 468, N-((3R,5S)-5-Methoxypiperidin-3-yl)-5-(*R)-(2-methyl-4-phenoxyphenyl)-4-oxo-4,5-dihydro-3H-1-thia-3,5,8-triazaacenaphthylene-2-carboxamide]", "values": [{"measurement": "BTK_I_binding pIC50", "setting": "[1]", "value": 5.9}]}, {"molecule": "C=CC(=O)N1CCC[C@H](NC(=O)c2sc3nccc4c3c2NC(=O)N4c2ccc(Oc3ccccc3)cn2)C1", "note": "[Example 795, (S)—N-(1-Acryloylpiperidin-3-yl)-4-oxo-5-(5-phenoxypyridin-2-yl)-4,5-dihydro-3H-1-thia-3,5,8-triazaacenaphthylene-2-carboxamide]", "values": [{"measurement": "BTK_I_binding pIC50", "setting": "[2]", "value": 6.4}]}, {"molecule": "C=CC(=O)N1CCC[C@@H](NC(=O)c2sc3nccc4c3c2NC(=O)N4c2ccc(Oc3ccccc3)c(F)c2C)C1", "note": "[Example 4, (R)—N-(1-Acryloylpiperidin-3-yl)-5-(3-fluoro-2-methyl-4-phenoxyphenyl)-4-oxo-4,5-dihydro-3H-1-thia-3,5,8-triazaacenaphthylene-2-carboxamide]", "values": [{"measurement": "BTK_I_binding pIC50", "setting": "[3]", "value": 7.7}]}, {"molecule": "C=CC(=O)N1CCC[C@@H](NC(=O)c2sc3nccc4c3c2NC(=O)N4c2ccnc(C3CCCCC3)c2)C1", "note": "[Example 677, (R)—N-(1-Acryloylpiperidin-3-yl)-5-(2-cyclohexylpyridin-4-yl)-4-oxo-4,5-dihydro-3H-1-thia-3,5,8-triazaacenaphthylene-2-carboxamide]", "values": [{"measurement": "BTK_I_binding pIC50", "setting": "[2]", "value": 7.3}]}, {"molecule": "Cc1cc(OC2CCCC2)ccc1N1C(=O)Nc2c(C(=O)N[C@@H]3CCCN(C)C3)sc3nccc1c23", "note": "[Example 297, (R)-5-(4-(Cyclopentyloxy)-2-methylphenyl)-N-(1-methylpiperidin-3-yl)-4-oxo-4,5-dihydro-3H-1-thia-3,5,8-triazaacenaphthylene-2-carboxamide]", "values": [{"measurement": "BTK_I_binding pIC50", "setting": "[1]", "value": 6.1}]}, {"molecule": "CO[C@@H]1C[C@@H](NC(=O)c2sc3nccc4c3c2NC(=O)N4c2ccc(Oc3ccccc3)cc2)CN(C)C1", "note": "[Example 259, N-((3R,5R)-5-Methoxy-1-methylpiperidin-3-yl)-4-oxo-5-(4-phenoxyphenyl)-4,5-dihydro-3H-1-thia-3,5,8-triazaacenaphthylene-2-carboxamide]", "values": [{"measurement": "BTK_I_binding pIC50", "setting": "[3]", "value": 6.5}]}, {"molecule": "C=C(F)C(=O)N1CCC[C@@H](NC(=O)c2sc3nccc4c3c2NC(=O)N4c2ccc(Oc3ccccc3)cc2C)C1", "note": "(single isomer, unassigned) [Example 49, (R)—N-(1-(2-Fluoroacryloyl)piperidin-3-yl)-5-(*S)-(2-methyl-4-phenoxyphenyl)-4-oxo-4,5-dihydro-3H-1-thia-3,5,8-triazaacenaphthylene-2-carboxamide]", "values": [{"measurement": "BTK_I_binding pIC50", "setting": "[3]", "value": 7.2}]}, {"molecule": "O=C(N[C@@H]1CCCNC1)c1sc2nccc3c2c1NC(=O)N3c1ccc(O)cc1", "note": "[Example 642, (R)-5-(4-Hydroxyphenyl)-4-oxo-N-(piperidin-3-yl)-4,5-dihydro-3H-1-thia-3,5,8-triazaacenaphthylene-2-carboxamide]", "values": [{"measurement": "BTK_I_binding pIC50", "setting": "[2]", "value": 5.3}]}, {"molecule": "CC(C)Cc1cccc(N2C(=O)Nc3c(C(=O)N[C@@H]4CCCNC4)sc4nccc2c34)c1", "note": "[Example 721, (R)-5-(3-Isobutylphenyl)-4-oxo-N-(piperidin-3-yl)-4,5-dihydro-3H-1-thia-3,5,8-triazaacenaphthylene-2-carboxamide]", "values": [{"measurement": "BTK_I_binding pIC50", "setting": "[2]", "value": 6.2}]}]}
